Series [1] is described as follows: Solid form conversion of amorphous and metastable forms. Type of series: physicochemical. The settings on record: for Solid form stability under moisture: water/moisture, room temperature.
Series [2] concerns the target CDK9/cyclin T1 (Homo sapiens, UniProt P50750). Nature of the series: CDK subtype selectivity, 33P-ATP radiometric kinase assay. The format is biochemical. The source says: (§1) The mechanism of this method is shown in formula (IV).
(§2) Data was processed with Prism4 Software (GraphPad), and the curve fitting formula was: Y=Bottom+(Top−Bottom)/(1+10^((Log IC50−X)*HillSlope)); wherein, Y is percent inhibition (%); X is logarithm of concentration of the inhibitor.

Series [3] has as its target CDK2/cyclin E (Homo sapiens, UniProt P24941). The series is described as above. The format is biochemical.
Description: as §1, §2

A short description of series [4]: Crystal form long-term stability, impurities by HPLC. The format is physicochemical. The settings on record: for Content > 0.1% Number of unknown impurities (s) / Maximum single impurity content (%) / Total impurity content (%): 25° C.±2° C., RH 60%±10%, HPLC.
Series [5] is described as follows: Pharmacokinetic experiment in SD rats, plasma by LC-MS/MS. The format is in vivo. The settings on record: both sexes, Sprague-Dawley (SD), rat, PO, 30 mg/kg. The method, then:
A total of 12 SD rats were divided into two groups, 6 in each group, each half of male and female.
In the above plasma sample, protein was precipitated by acetonitrile, the supernatant was diluted 3 times with water, and 5 μL was detected by LC-MS/MS, the results of experiment was shown in table 10: […]

Series [6] can be described thus: Solubility in water at room temperature. The settings on record: for Classification of solubility: classes of the Chinese Pharmacopoeia (2015); for solubility: thermodynamic from solid. Type of series: physicochemical.
Series [7] in a line: Stability of the crystal form, checked by XRD. Type of series: physicochemical. As for the experimental part:
In one embodiment of the invention, XRD analysis of the small sample (batch number: 1072P04-A14S01) was performed by SoliPharmausing Bruker D8 Advance Diffractometer.

Series [8] is described as follows: Dynamic moisture sorption (DVS). The format is physicochemical. The source says:
The instruments and methods of Dynamic moisture adsorption in the present invention was shown in table 7, the results of DVS was shown in table 8.

From patent US12043622B2, “Crystal form of compound for inhibiting the activity of CDK4/6 and use thereof” (Betta Pharmaceuticals Co., Ltd., priority 2019, dated 2024) come the findings set out here.

In general, AUC(0-t) refers to the area under the concentration-time curve up to a stated or last time point. Read a high AUC(0-t) as high exposure. Usually solubility stands for the dissolved amount per volume that the medium holds.

Molecules are shown by their SMILES. Where two headings read alike, the source gives them in different places.

CDK9/cyclin T1, sequence (P50750 whole entry, species assumed): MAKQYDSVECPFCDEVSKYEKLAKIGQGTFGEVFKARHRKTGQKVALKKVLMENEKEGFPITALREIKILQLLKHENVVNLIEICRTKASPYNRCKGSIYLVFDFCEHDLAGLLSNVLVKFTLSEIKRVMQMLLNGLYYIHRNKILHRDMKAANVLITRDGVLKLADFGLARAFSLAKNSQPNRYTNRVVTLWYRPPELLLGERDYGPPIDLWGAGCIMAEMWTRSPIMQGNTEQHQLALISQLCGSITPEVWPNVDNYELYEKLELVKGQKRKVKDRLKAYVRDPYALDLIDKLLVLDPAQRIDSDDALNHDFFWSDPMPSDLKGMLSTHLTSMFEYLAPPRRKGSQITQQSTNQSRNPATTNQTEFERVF
CDK9/cyclin T1, sequence (O60563 whole entry partner, species assumed): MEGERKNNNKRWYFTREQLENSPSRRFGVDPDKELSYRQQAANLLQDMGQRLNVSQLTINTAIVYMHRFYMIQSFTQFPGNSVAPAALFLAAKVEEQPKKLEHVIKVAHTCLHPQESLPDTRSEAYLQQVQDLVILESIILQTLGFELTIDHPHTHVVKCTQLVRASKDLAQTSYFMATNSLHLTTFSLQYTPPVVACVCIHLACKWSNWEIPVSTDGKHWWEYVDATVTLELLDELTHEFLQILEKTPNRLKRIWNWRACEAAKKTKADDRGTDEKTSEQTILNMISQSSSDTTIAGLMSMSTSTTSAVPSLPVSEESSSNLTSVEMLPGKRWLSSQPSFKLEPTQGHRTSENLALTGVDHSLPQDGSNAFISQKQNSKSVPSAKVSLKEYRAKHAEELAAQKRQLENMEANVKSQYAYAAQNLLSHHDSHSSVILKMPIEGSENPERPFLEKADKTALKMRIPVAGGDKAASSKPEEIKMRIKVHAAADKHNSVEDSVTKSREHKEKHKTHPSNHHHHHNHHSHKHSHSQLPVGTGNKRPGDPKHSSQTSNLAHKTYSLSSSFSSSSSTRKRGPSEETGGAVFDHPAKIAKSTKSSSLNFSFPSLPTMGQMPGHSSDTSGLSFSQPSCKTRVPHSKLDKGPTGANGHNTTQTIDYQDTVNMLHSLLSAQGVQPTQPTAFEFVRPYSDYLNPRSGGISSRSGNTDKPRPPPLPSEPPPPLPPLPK

Regarding `CCN1CCN(Cc2ccc(Nc3ncc(F)c(-c4cc(F)c5nc6n(c5c4)[C@H](C)CCC6)n3)nc2)CC1.CS(=O)(=O)O` [amorphous form of compound III], the “Solid form stability on scale-up” value in series [1] (scaled up to 50 mg) is given as “unstable”.
`CCN1CCN(Cc2ccc(Nc3ncc(F)c(-c4cc(F)c5nc6n(c5c4)[C@H](C)CCC6)n3)nc2)CC1.O=C(O)C(O)C(O)C(=O)O` [amorphous form of compound II]: the “Solid form stability under moisture” value in series [1] is “readily converted to the crystal form B of compound II”; in series [1] (listed as amorphous form of Compound II) it was “readily forms Form B of Compound II”.
`CCN1CCN(Cc2ccc(Nc3ncc(F)c(-c4cc(F)c5nc6n(c5c4)[C@H](C)CCC6)n3)nc2)CC1` [compound 2b]: the IC50 in series [2] (read-out: IC50 CDK9/cyclin T1) came out at 649 nM; in series [3] (read-out: IC50 CDK2/cyclin E), 441 nM.
Regarding `CCN1CCN(Cc2ccc(Nc3ncc(F)c(-c4cc(F)c5nc6n(c5c4)[C@H](C)CCC6)n3)nc2)CC1` [compound I, (R)—N-(5-((4-ethylpiperazin-1-yl)methyl)pyridin-2-yl)-5-fluoro-4-(6-fluoro-1-methyl-1,2,3,4-tetrahydrobenzo[4,5]imidazo[1,2-a]pyridin-8-yl)pyrimidin-2-amine], in series [4] (0 month), the “Content > 0.1% Number of unknown impurities (s)” value (“Content > 0.1% Number” below) is 0, the “Maximum single impurity content (%)” value is 0.04% and the “Total impurity content (%)” value came to 0.11%. For the same molecule, in series [4] (3 month), the “Content > 0.1% Number” value was 0, the “Maximum single impurity content (%)” value came to 0.10% and the “Total impurity content (%)” value worked out at 0.17%. In series [4] (18 month), the “Maximum single impurity content (%)” value came to 0.22% and the “Total impurity content (%)” value was determined as 1.0%. The molecule also had an area under the curve AUC(0-t) in series [5] of 27700 ng·h/mL. In series [6], the Classification of solubility entry is recorded as “Very little soluble” and the solubility is under 1 mg/mL. Moreover, the IC50 in series [2] (stated jointly for CDK1/2/7/9, read-out: IC50 for inhibiting CDK9) is over 400 nM. The IC50 in series [3] (stated jointly for CDK1/2/7/9, read-out: IC50 for inhibiting CDK2) was over 400 nM.
`CCN1CCN(Cc2ccc(Nc3ncc(F)c(-c4cc(F)c5nc6n(c5c4)[C@H](C)CCC6)n3)nc2)CC1.O=C(O)C(O)C(O)C(=O)O` [crystal form A of compound II]: the “Content > 0.1% Number” value in series [4] (0 month), in series [4] (3 month) and in series [4] (18 month) was 0 throughout. For the same molecule, the “Maximum single impurity content (%)” value worked out at 0.05% in series [4] (0 month), 0.05% in series [4] (3 month) and 0.06% in series [4] (18 month). For the same molecule, the figures for the “Total impurity content (%)” value in series [4] (0 month), in series [4] (3 month) and in series [4] (18 month) were 0.10%, 0.13% and 0.21%, respectively. In series [4] (after 18 months), the “Amount of the impurities produced” value is on record as “less than 0.1%”. Further, the “XRD pattern after storage (crystal form stability)” value (“XRD pattern after storage” for short) in series [7] (25° C., 60% RH, 10 days) is listed as “not changed”; in series [7] (25° C., 60% RH, 10 days, listed as crystal form A of the compound II), “unchanged”; in series [7] (40° C., 75% RH, 10 days), “not changed”; in series [7] (40° C., 75% RH, 10 days, listed as crystal form A of the compound II), “unchanged”; in series [7] (dried at 80° C., 24 h), “not changed”; in series [7] (dried at 80° C., 24 h, listed as crystal form A of the compound II), “unchanged”. The same molecule had an AUC(0-t) in series [5] of 47000 ng·h/mL. Also, the Classification of solubility entry in series [6] is “Readily-soluble”. For the same molecule, the solubility in series [6] fell in the range of 100 to 200 mg/mL.
`CCN1CCN(Cc2ccc(Nc3ncc(F)c(-c4cc(F)c5nc6n(c5c4)[C@H](C)CCC6)n3)nc2)CC1.O=C(O)C(O)C(O)C(=O)O` [crystal form B of compound II]: the “Solid form stability on heating” value in series [1] (heated to 180° C.) was “could be converted to crystal form A”. In addition, the “Weight change in the range of 0% RH-80% RH” value in series [8] is on record as 5.5%.
`CCN1CCN(Cc2ccc(Nc3ncc(F)c(-c4cc(F)c5nc6n(c5c4)[C@H](C)CCC6)n3)nc2)CC1.CS(=O)(=O)O` [crystal form D of compound III]: the “XRD pattern after storage” value is listed as “changed” in series [7] (25° C., 60% RH, 10 days); “changed” in series [7] (40° C., 75% RH, 10 days); “unchanged” in series [7] (dried at 80° C., 24 h, listed as crystal form D of the compound III). Moreover, the Classification of solubility entry in series [6] is “soluble”. The molecule also gave a solubility in series [6] of 50 to 100 mg/mL.
For the molecule `CCN1CCN(Cc2ccc(Nc3ncc(F)c(-c4cc(F)c5nc6n(c5c4)[C@H](C)CCC6)n3)nc2)CC1.CS(=O)(=O)O` [crystal form F of compound III], the “XRD pattern after storage” value is on record as “changed” in series [7] (25° C., 60% RH, 10 days); “changed” in series [7] (40° C., 75% RH, 10 days); “changed” in series [7] (dried at 80° C., 24 h, listed as crystal form F the compound III). Also, in series [8], the “Weight change in the range of 0% RH-80% RH” value is listed as 16.6%.
